Results on four compounds are retold here after patent US10675275B2, “Prophylactic and/or therapeutic agent for fibromyalgia” (ONO PHARMACEUTICAL CO., LTD., priority 2015, dated 2020).

The subject of the assay is rat somatic hyperalgesia model. Kind of assay: Efficacy in a rat somatic hyperalgesia model (acid saline, Randall-Selitto pain threshold). The class given is in vivo. The following applies: SD male rats, right hind paw (non-challenged side), oral. As to the method: SD male rats (Charles River Laboratories Japan, Inc., 5 weeks old upon usage) were used. Under isoflurane anaesthesia, rats were intramuscularly administered with 100 μL of acidic saline of pH 4.0 in the left gastrocnemius. After 5 days of administration, rats again received 100 μL of acid saline in the left gastrocnemius. In the normal group, rats were intramuscularly administered with 100 μL of saline twice in total with 5 days apart in the left gastrocnemius (see Muscle Nerve, vol. 24, pp. 37-46, 2001).
The pain threshold was measured on a Randall-Selitto pressure analgesy-meter (Ugo Basile). Briefly, rats were securely fixed and uniformly and continuously increasing pressure was applied to the hind paws. […] For each of the left and right hind paws, tests were carried out three times at each evaluation point and the values were averaged to obtain the pain threshold.
For the normal group, rats were arbitrarily selected from those showing the pain threshold on the day before the first administration of acid saline of 140 g or more for both left and right hind paws. After being divided into groups, administration of the test compound (the present compound (the compound described in Example 38 of PTL 1), comparative compound A (the compound described in Example 38(5) of PTL 1), comparative compound B (the compound described in Example 41(2) of PTL 1), comparative compound C (1-(2-chlorophenyl)-N-methyl-N-(1-methylpropyl)isoquinoline-3-carboxamide (PK11195), CAS registry No.: 85532-75-8), a control substance (duloxetine hydrochloride, pregabalin) or a vehicle (0.5 w/v % methylcellulose 400 cP solution)) was started on the same day. On day 1 and day 7 of administration of each drug solution, the pain threshold on left and right hind paws was measured in a blind manner 2 hours after the first administration. Duloxetine hydrochloride was orally administered once a day and other agents were orally administered twice a day.

Where a name gives a salt, the structure may show the parent alone.

Turning to `CCC(C)N(C)C(=O)c1cc2ccccc2c(-c2ccccc2Cl)n1` (centres unmarked) [comparative compound C, 1-(2-chlorophenyl)-N-methyl-N-(1-methylpropyl)isoquinoline-3-carboxamide], the “pain threshold (efficacy for the pain threshold decreased in the control group)” value (day 7, before and 2 hours after administration, 1 mg/kg, twice a day) is on record as “did not show the efficacy”.
`CNCC[C@H](Oc1cccc2ccccc12)c1cccs1` [duloxetine hydrochloride]: the “pain threshold (suppression of the decrease caused by acid saline)” value (day 7, before and 2 hours after administration, 30 mg/kg, once a day) is on record as “suppressed this decrease of the pain threshold”.
On to `CC(C)C[C@H](CN)CC(=O)O` [pregabalin], for which, where the note is “day 7, before and 2 hours after administration, 20 mg/kg, twice a day”, the “pain threshold (suppression of the decrease caused by acid saline)” value is listed as “suppressed this decrease of the pain threshold”.
On to `COc1cc(Cl)ccc1[C@H]1c2[nH]c3cccc(F)c3c2C2(CC2)CN1C(C)=O` [the present compound, (1S)-2-acetyl-1-(4-chloro-2-methoxyphenyl)-5-fluoro-1,2,3,9-tetrahydrospiro[β-carboline-4,1′-cyclopropane]], for which the “pain threshold (suppression of the decrease caused by acid saline)” value reads like this: (day 7 of administration, before and 2 hours after administration, 0.1, 1 or 10 mg/kg, twice a day) “significant suppression”; (day 7 of administration, before and 2 hours after administration, 0.1, 1 or 10 mg/kg, twice a day, listed as The present compound) “suppressed this decrease of the pain threshold”.
